Experimental data from ChEMBL document CHEMBL3286148, “Aminoazabenzimidazoles, a novel class of orally active antimalarial agents” (J Med Chem, 2014).
Values after ≈ are worked out from the molar mass of the structure shown.

Experiments:
[1] = Selectivity index, ratio of IC50 for human A549 cells to IC50 for Plasmodium falciparum; format: toxicity, cell-based; conditions: read-out: Ratio IC50
Cytochrome P450 3A4 = Cytochrome P450 3A4 (Homo sapiens, UniProt P08684); assay: Inhibition of CYP3A4 (unknown origin); format: ADME
[2] = AUC (0 to 23 hrs) in Plasmodium falciparum 3D70087/N9 infected NODscidIL2Rgamma-null mouse at 30 mg/kg, po by LC-MS/MS analysis; format: ADME, organism-based; set-up: time < 23 hr, dose 30 mg/kg, route oral; conditions: plasma
[3] = Clearance in mouse liver microsomes; format: ADME; conditions: read-out: CLH
Cytochrome P450 2C9 = Cytochrome P450 2C9 (Homo sapiens, UniProt P11712); assay: Inhibition of CYP2C9 (unknown origin); format: ADME
[4] = Half life in Wistar rat at 5 mg/kg, po; format: ADME, organism-based; set-up: dose 5 mg/kg, route oral; conditions: in vivo
Plasmodium berghei [5] = assay: Antiplasmodial activity against Plasmodium berghei ANKA expressing GFP infected in BALB/c mouse assessed as reduction of viable parasites at 50 mg/kg, po qd for 4 days by flow cytometry; format: functional
[6] = Tmax in Plasmodium falciparum 3D70087/N9 infected NODscidIL2Rgamma-null mouse at 50 mg/kg, po by LC-MS/MS analysis; format: ADME, organism-based; set-up: dose 50 mg/kg, route oral; conditions: in vivo
Mus musculus [7] = assay: Dose normalized AUC (0 to 23 hrs) in Plasmodium falciparum 3D70087/N9 infected NODscidIL2Rgamma-null mouse at 3 mg/kg, po by LC-MS/MS analysis; format: ADME, organism-based; set-up: dose 3 mg/kg, route oral; conditions: in vivo
[8] = AUC (0 to 23 hrs) in Plasmodium falciparum 3D70087/N9 infected NODscidIL2Rgamma-null mouse at 10 mg/kg, po by LC-MS/MS analysis; format: ADME, organism-based; set-up: time < 23 hr, dose 10 mg/kg, route oral; conditions: plasma
[9] = Tmax in Plasmodium falciparum 3D70087/N9 infected NODscidIL2Rgamma-null mouse at 3 mg/kg, po by LC-MS/MS analysis; format: ADME, organism-based; set-up: dose 3 mg/kg, route oral; conditions: in vivo
Mus musculus [10] = assay: Dose normalized Cmax in Plasmodium falciparum 3D70087/N9 infected NODscidIL2Rgamma-null mouse at 30 mg/kg, po by LC-MS/MS analysis; format: ADME, organism-based; set-up: dose 30 mg/kg, route oral; conditions: in vivo
[11] = Oral bioavailability in Wistar rat at 5 mg/kg; format: ADME, organism-based; conditions: in vivo
[12] = Lipophilicity, log D of the compound; format: physicochemical; conditions: octanol/water
[13] = Half life in Wistar rat at 1 mg/kg, iv; format: ADME, organism-based; set-up: dose 1 mg/kg, route intravenous; conditions: in vivo
Mus musculus [14] = assay: AUC (0 to 23 hrs) in Plasmodium falciparum 3D70087/N9 infected NODscidIL2Rgamma-null mouse at 50 mg/kg, po by LC-MS/MS analysis; conditions: in vivo
Plasmodium berghei [15] = assay: Antiplasmodial activity against Plasmodium berghei ANKA expressing GFP infected in BALB/c mouse assessed as host survival days at 50 mg/kg, po qd for 4 days; format: functional
[16] = AUC in Wistar rat at 1 mg/kg, iv; format: ADME, organism-based; set-up: dose 1 mg/kg, route intravenous; conditions: plasma
Cytochrome P450 1A2 = molecular target: T1, Cytochrome P450 1A2 (Homo sapiens, UniProt P05177); assay: Inhibition of CYP1A2 (unknown origin); format: ADME
T1 sequence (P05177 whole entry): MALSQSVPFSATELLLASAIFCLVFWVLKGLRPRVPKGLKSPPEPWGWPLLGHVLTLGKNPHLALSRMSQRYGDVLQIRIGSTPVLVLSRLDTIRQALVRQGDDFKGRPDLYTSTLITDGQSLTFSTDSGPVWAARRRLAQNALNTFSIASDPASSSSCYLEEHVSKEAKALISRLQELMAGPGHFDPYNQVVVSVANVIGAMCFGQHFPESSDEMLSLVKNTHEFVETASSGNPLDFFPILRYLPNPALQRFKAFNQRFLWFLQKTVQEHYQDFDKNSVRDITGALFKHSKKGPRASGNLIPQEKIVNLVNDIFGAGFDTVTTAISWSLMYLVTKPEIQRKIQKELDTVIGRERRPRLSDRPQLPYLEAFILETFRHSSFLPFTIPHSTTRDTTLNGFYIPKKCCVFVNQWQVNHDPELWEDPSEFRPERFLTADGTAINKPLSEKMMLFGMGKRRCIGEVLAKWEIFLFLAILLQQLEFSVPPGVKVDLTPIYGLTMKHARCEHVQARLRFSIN

Plasmodium falciparum [17] = assay: microbe, parasite or virus in culture; conditions: NF54, 72 h
[18] = AUC (0 to 23 hrs) in Plasmodium falciparum 3D70087/N9 infected NODscidIL2Rgamma-null mouse at 50 mg/kg, po by LC-MS/MS analysis; format: ADME, organism-based; set-up: time < 23 hr, dose 50 mg/kg, route oral; conditions: plasma
[19] = Cmax in Plasmodium falciparum 3D70087/N9 infected NODscidIL2Rgamma-null mouse at 50 mg/kg, po by LC-MS/MS analysis; format: ADME, organism-based; set-up: dose 50 mg/kg, route oral; conditions: in vivo
[20] = molecular target: Voltage-gated inwardly rectifying potassium channel KCNH2 (Homo sapiens, UniProt Q12809); assay: Inhibition of human ERG
[21] = AUC (0 to 23 hrs) in Plasmodium falciparum 3D70087/N9 infected NODscidIL2Rgamma-null mouse at 3 mg/kg, po by LC-MS/MS analysis; format: ADME, organism-based; set-up: time < 23 hr, dose 3 mg/kg, route oral; conditions: plasma
Cytochrome P450 2D6 = Cytochrome P450 2D6 (Homo sapiens, UniProt P10635); assay: Inhibition of CYP2D6 (unknown origin); format: ADME
[22] = Cmax in Wistar rat at 5 mg/kg, po; format: ADME, organism-based; set-up: dose 5 mg/kg, route oral; conditions: in vivo
[23] = Clearance in rat hepatocytes assessed per 1E6 cells; format: ADME, cell-based, Hepatocyte; conditions: read-out: CLH
[24] = Cmax in Plasmodium falciparum 3D70087/N9 infected NODscidIL2Rgamma-null mouse at 30 mg/kg, po by LC-MS/MS analysis; format: ADME, organism-based; set-up: dose 30 mg/kg, route oral; conditions: in vivo
Plasmodium falciparum [25] = assay: microbe, parasite or virus in culture; conditions: K1, 72 h
[26] = Cmax in Plasmodium falciparum 3D70087/N9 infected NODscidIL2Rgamma-null mouse at 10 mg/kg, po by LC-MS/MS analysis; format: ADME, organism-based; set-up: dose 10 mg/kg, route oral; conditions: in vivo
[27] = Fraction unbound in human plasma; format: ADME, cell-free
[28] = Cmax in Plasmodium falciparum 3D70087/N9 infected NODscidIL2Rgamma-null mouse at 3 mg/kg, po by LC-MS/MS analysis; format: ADME, organism-based; set-up: dose 3 mg/kg, route oral; conditions: in vivo
Mus musculus [29] = assay: Dose normalized Cmax in Plasmodium falciparum 3D70087/N9 infected NODscidIL2Rgamma-null mouse at 3 mg/kg, po by LC-MS/MS analysis; format: ADME, organism-based; set-up: dose 3 mg/kg, route oral; conditions: in vivo
Mus musculus [30] = assay: AUC at ED90 in po dosed Plasmodium falciparum 3D70087/N9 infected NODscidIL2Rgamma-null mouse after 7 days; format: ADME, organism-based, Plasma; conditions: in vivo, 168 h
[31] = Aqueous solubility of the compound; format: physicochemical; conditions: buffer
Mus musculus [32] = assay: Dose normalized Cmax in Plasmodium falciparum 3D70087/N9 infected NODscidIL2Rgamma-null mouse at 50 mg/kg, po by LC-MS/MS analysis; format: ADME, organism-based; set-up: dose 50 mg/kg, route oral; conditions: in vivo
Mus musculus [33] = assay: AUC (0 to 23 hrs) in Plasmodium falciparum 3D70087/N9 infected NODscidIL2Rgamma-null mouse at 10 mg/kg, po by LC-MS/MS analysis; conditions: in vivo
Cytochrome P450 2C19 = Cytochrome P450 2C19 (Homo sapiens, UniProt P33261); assay: Inhibition of CYP2C19 (unknown origin); format: ADME
[34] = Clearance in human liver microsomes; format: ADME; conditions: read-out: CLH
[35] = Tmax in Plasmodium falciparum 3D70087/N9 infected NODscidIL2Rgamma-null mouse at 30 mg/kg, po by LC-MS/MS analysis; format: ADME, organism-based; set-up: dose 30 mg/kg, route oral; conditions: in vivo
[36] = Clearance in Wistar rat at 1 mg/kg, iv; format: ADME, organism-based; set-up: dose 1 mg/kg, route intravenous; conditions: in vivo
[37] = Volume of distribution at steady state in Wistar rat at 1 mg/kg, iv; format: ADME, organism-based; set-up: dose 1 mg/kg, route intravenous; conditions: in vivo, read-out: Vdss
Mus musculus [38] = assay: AUC (0 to 23 hrs) in Plasmodium falciparum 3D70087/N9 infected NODscidIL2Rgamma-null mouse at 30 mg/kg, po by LC-MS/MS analysis; conditions: in vivo
Plasmodium falciparum [39] = assay: Antiplasmodial activity against Plasmodium falciparum 3D70087/N9 infected in po dosed NODscidIL2Rgamma-null mouse assessed as reduction of parasite level in peripheral blood qd for 4 days by flow cytometry analysis; format: functional; conditions: 96 h
Mus musculus [40] = assay: Dose normalized Cmax in Plasmodium falciparum 3D70087/N9 infected NODscidIL2Rgamma-null mouse at 10 mg/kg, po by LC-MS/MS analysis; format: ADME, organism-based; set-up: dose 10 mg/kg, route oral; conditions: in vivo
[41] = Tmax in Plasmodium falciparum 3D70087/N9 infected NODscidIL2Rgamma-null mouse at 10 mg/kg, po by LC-MS/MS analysis; format: ADME, organism-based; set-up: dose 10 mg/kg, route oral; conditions: in vivo
Plasmodium berghei [42] = assay: Antiplasmodial activity against Plasmodium berghei ANKA expressing GFP infected in BALB/c mouse assessed as host survival days at 30 mg/kg, po qd for 4 days; format: functional

Sequence of Cytochrome P450 2D6 (P10635 whole entry): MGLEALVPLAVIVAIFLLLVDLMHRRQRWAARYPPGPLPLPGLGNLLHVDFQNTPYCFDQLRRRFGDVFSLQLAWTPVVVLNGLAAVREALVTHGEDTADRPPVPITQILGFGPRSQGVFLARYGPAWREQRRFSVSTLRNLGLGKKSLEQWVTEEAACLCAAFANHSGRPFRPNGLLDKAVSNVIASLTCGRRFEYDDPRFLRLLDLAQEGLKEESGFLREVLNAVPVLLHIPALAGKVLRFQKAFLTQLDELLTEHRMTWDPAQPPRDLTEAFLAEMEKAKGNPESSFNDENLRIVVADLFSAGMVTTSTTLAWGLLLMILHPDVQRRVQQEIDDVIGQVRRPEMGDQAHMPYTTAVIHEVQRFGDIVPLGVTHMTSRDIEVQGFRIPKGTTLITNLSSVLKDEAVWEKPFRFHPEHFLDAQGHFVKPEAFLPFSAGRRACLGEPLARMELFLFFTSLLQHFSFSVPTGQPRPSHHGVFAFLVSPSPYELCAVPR
Sequence of Cytochrome P450 2C19 (P33261 whole entry): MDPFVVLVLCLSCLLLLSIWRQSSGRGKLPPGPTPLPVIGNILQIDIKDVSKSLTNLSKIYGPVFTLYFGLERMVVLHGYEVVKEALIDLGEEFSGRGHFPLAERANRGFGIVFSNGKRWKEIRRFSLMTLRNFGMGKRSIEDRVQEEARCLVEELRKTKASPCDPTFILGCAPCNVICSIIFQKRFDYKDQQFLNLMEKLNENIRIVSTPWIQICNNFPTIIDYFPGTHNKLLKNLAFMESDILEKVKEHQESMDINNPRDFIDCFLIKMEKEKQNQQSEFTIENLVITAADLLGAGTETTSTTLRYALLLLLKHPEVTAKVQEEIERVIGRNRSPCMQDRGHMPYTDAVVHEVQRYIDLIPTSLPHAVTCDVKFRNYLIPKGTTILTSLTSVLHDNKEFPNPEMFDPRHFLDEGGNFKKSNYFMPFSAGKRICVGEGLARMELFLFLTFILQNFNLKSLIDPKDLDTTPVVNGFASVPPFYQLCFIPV
Sequence of Cytochrome P450 2C9 (P11712 whole entry): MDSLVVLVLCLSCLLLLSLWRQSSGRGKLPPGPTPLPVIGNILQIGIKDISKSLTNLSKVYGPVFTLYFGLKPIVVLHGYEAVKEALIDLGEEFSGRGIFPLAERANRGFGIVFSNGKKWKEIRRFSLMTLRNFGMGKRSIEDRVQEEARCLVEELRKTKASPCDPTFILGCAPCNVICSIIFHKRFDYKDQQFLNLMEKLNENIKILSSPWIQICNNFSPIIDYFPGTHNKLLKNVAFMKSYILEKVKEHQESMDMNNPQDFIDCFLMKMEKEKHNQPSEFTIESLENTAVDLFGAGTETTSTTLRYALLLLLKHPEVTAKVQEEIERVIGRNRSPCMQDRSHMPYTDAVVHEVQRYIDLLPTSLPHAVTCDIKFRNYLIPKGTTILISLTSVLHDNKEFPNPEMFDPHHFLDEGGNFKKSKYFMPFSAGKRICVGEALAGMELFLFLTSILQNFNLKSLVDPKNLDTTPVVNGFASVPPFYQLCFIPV
Sequence of Cytochrome P450 3A4 (P08684 whole entry): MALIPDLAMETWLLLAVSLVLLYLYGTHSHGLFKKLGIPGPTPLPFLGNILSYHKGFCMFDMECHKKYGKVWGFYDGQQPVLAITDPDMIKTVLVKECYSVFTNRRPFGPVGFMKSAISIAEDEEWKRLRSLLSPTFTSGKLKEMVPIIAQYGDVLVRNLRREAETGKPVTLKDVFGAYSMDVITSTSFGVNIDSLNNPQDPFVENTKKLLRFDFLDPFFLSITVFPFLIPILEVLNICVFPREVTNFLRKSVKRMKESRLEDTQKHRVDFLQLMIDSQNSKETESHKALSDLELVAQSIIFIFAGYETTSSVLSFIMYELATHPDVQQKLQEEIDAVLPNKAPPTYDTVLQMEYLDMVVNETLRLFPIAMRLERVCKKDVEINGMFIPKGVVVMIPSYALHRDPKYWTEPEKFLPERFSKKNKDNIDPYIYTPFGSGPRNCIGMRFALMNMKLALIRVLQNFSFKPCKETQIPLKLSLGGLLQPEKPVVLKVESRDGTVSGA
Sequence of Voltage-gated inwardly rectifying potassium channel KCNH2 (Q12809 whole entry): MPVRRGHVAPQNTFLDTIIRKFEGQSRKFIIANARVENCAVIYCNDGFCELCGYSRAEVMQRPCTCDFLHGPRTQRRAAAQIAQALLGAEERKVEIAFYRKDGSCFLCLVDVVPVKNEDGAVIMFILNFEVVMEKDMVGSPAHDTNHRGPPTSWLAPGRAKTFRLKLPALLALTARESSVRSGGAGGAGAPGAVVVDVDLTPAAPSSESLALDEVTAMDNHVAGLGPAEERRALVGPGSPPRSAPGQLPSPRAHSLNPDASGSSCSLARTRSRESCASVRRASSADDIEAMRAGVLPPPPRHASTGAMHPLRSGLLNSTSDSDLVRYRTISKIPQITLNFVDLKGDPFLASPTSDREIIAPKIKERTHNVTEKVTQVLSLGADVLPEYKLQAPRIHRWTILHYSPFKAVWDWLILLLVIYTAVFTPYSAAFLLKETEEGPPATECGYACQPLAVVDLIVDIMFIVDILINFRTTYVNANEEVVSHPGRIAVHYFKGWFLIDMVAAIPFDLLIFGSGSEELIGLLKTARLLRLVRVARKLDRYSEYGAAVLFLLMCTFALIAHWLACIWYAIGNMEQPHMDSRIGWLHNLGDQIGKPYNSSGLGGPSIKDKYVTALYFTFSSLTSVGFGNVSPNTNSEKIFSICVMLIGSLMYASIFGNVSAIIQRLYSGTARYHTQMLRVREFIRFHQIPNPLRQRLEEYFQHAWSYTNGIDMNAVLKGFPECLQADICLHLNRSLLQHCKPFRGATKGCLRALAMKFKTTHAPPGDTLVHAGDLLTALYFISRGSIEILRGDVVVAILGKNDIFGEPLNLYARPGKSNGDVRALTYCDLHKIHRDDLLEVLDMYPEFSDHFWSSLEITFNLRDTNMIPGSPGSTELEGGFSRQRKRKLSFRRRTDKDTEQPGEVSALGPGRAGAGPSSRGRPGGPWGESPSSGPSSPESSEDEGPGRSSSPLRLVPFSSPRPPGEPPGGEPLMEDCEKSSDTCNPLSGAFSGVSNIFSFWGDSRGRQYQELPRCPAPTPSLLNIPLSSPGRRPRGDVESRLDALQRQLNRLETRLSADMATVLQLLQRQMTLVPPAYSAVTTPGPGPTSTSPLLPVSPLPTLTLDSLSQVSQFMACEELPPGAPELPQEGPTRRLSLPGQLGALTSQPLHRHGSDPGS

CC(Oc1ccc2nc(N)n(CC(O)c3ccc(C(F)(F)F)cc3Cl)c2n1)C(F)(F)F (racemic)
selectivity ratio [1]: > 325 | IC50 (Cytochrome P450 3A4): 20.3 µM | AUC(0-t) at 23 h [2]: 6930 ng·h/mL | microsomal CLint [3]: 19 µL/min/mg | IC50 (Cytochrome P450 2C9): 22.9 µM | half-life [4]: 7.16 h | Activity (Plasmodium berghei [5]): 94% | Tmax [6]: 4 h | AUC/dose (Mus musculus [7]): 0.16 µg·h/mL/mg/kg | AUC(0-t) at 23 h [8]: 2700 ng·h/mL | Tmax [9]: 0.5 h | Cmax/dose (Mus musculus [10]): 0.022 µg/mL/mg/kg | bioavailability [11]: 100% | logD [12]: > 4.5 | half-life [13]: 1.76 h | AUC (Mus musculus [14]): 3480 ng·h/mL | Survival (Plasmodium berghei [15]): 12 days | AUC [16]: 1.66 µM·h | IC50 (Cytochrome P450 1A2): > 30 µM | IC50 (Plasmodium falciparum [17]): 0.04 µM | AUC(0-t) at 23 h [18]: 10400 ng·h/mL | Cmax [19]: 1070 ng/mL | IC50 [20]: > 33.3 µM | AUC(0-t) at 23 h [21]: 480 ng·h/mL | IC50 (Cytochrome P450 2D6): 28.3 µM | Cmax [22]: 2040 nM | hepatocyte CLint [23]: 43 µL/min/1e6 cells | Cmax [24]: 680 ng/mL | IC50 (Plasmodium falciparum [25]): 0.005 µM | Cmax [26]: 360 ng/mL | fraction unbound [27]: < 0.01 | Cmax [28]: 600 ng/mL | Cmax/dose (Mus musculus [29]): 0.019 µg/mL/mg/kg | AUC (Mus musculus [30]): 6.55 ug.hr/ml/day | solubility [31]: 5 µM (≈ 2.34 µg/mL) | Cmax/dose (Mus musculus [32]): 0.021 µg/mL/mg/kg | AUC (Mus musculus [33]): 900 ng·h/mL | IC50 (Cytochrome P450 2C19): 4.7 µM | microsomal CLint [34]: 32 µL/min/mg | Tmax [35]: 6 h | clearance [36]: 22.6 mL/min/kg | Vd [37]: 2.49 L/kg | AUC (Mus musculus [38]): 2310 ng·h/mL | ED90 (Plasmodium falciparum [39]): 28.6 mg/kg | Cmax/dose (Mus musculus [40]): 0.035 µg/mL/mg/kg | Tmax [41]: 2 h

CCN(CC)CCCC(C)Nc1ccnc2cc(Cl)ccc12 (configuration not stated) [CHLOROQUINE]
Survival (Plasmodium berghei [42]): 27 days
